In patent publication US20250026747A1, “COLIBACTIN DERIVATIVES AND METHODS OF TREATING, AMELIORATING, AND/OR PREVENTING CANCER” (priority 2021, published 2025):

Key:
Assay type in all cases: cell-based, human
[1] = Cell viability assay (CellTiter-GLO) in HeLa cells; details: human, 72 h, 24 nM to 100 μM, normalized to tamoxifen 60 μM and DMSO, read-out: half-maximal inhibitory potency (IC50), cytotoxicity
Description: (§1) FIGS. 12A-12E show the results of the Cell viability assays. Specifically, HeLa cells were incubated with: (FIG. 12A) compound 9; (FIG. 12B) colibactin 742 (4); (FIG. 12C) compound 22; (FIG. 12D) compound 23; or (FIG. 12E) compound 24 at 24 nM-100 μM for 72 h, according some embodiments. The cells were then incubated with CTG reagent and the luminescence was measured. Results were normalized to DMSO control (0.1%, 0% effect) tamoxifen (60 μM, 100% effect). The points are the averages of twelve measurements (triplicates of four). The lines are four parameters logistic regression (4PL) fit. Error bars represent 95% confidence ranges.
(§2) Experiments to determine if the cyclized and linear forms (colibactin 742 (4) and 9, respectively) are cytotoxic were conducted. As discussed above, the timing of the cyclization events that form the colibactin warheads is not known. To probe this, the instant study measured the cytotoxicity of both the linear precursor 9 and colibactin 742 (4) toward human cervical cancer cells (HeLa). The compounds were incubated for 72 h at concentrations ranging from 24 nM to 100 μM. Cell viability was measured using CellTiter GLO assay and normalized to tamoxifen (60 μM, set at 100% effect) and methyl sulfoxide (DMSO, set at 0% effect). […] Additionally, this observation further supports the notion that while the C36-C37 1,2-diketone may dictate colibactin's half-life within the gut, it may not play a critical role in DNA damage.
(§3) Hela cells were grown in Dulbecco's Modified Eagle Medium (DMEM) supplemented with fetal bovine serum (FBS, 10%) and penicillin-streptomycin (0.1%) at 37° C. in a 95% humidity atmosphere under 5% CO2 environment. Cytotoxicity was determined using a CellTiter-GLO Assay. Cells were seeded at a density of 400 cells to achieve total well volumes of 20 μL in 384-well plates (black with an optically clear bottom, Greiner Bio One 781091) using a Thermo Combidrop liquid dispenser and grown for […] at 37° C., 5% CO2. Cells were grown for 24 h, followed by the addition of test compounds using an Echo acoustic liquid handler (Labcyte). For each tested drug concentration, a 20 nL aliquot of the 1000× stock was added to 20 μL of cells to provide a final DMSO concentration of 0.1%. The compounds were incubated for 72 h at concentrations ranging from 24 nM to 100 μM. Each plate contained negative vehicle control wells (0.1% DMSO) and positive control wells (60 μM tamoxifen). After 72 h, the cells were treated with 10 μL CTG reagent. […] The resulting luminescence was measured using a plate reader (Infinite M1000, TECAN Group AG). Biological triplicates, each measured four times (N=12), for each compound were recorded for each concentration and IC50 values were determined using Prism 9 (Graph Pad) fit with a four parameters nonlinear regression.

[2] = test system: FANCD2; assay: Immunofluorescence assay of FANCD2 foci in HeLa cells; details: 4 h treatment, 20 h further culture; for FANCD2 foci formation: 1-100 μM
Description: (§4) FIGS. 7A-7B evaluates the Colibactin 742 (4) and its linear precursor 9 recapitulate the clb phenotype. […] HeLa cells were treated with the linear precursor 9 (1-100 μM), colibactin 742 (4) (1-100 μM) or MMC (150 nM) for 4 h. The cells were then washed and incubated for 20 h before immunofluorescence imaging. Cells were considered positive when >5 FANCD2 or γH2AX foci formed. Means and standard deviations of results from at least three independent experiments are shown. FIG. 7B depicts the DNA content histograms upon treatment with colibactin 742 (4, 11 μM) or 9 (11 μM) quantification of the sub-population of the histograms.
(§5) The present study then probed the DNA damage response that was activated following exposure to colibactin 742 (4) or its linear precursor 9. In mammalian cells, DNA interstrand cross-links (ICLs) are repaired by the Fanconi anemia pathway, and activation of this pathway is observed when eukaryotic cells are infected with clb^+ bacteria. Upon detection of an ICL, the Fanconi anemia protein D2 (FANCD2) is activated by monoubiquitinylation and recruited to the ICL to coordinate repair. Following initiation of repair, a double-strand break (DSB) is generated, which in turns triggers the formation of phospho-SER139-H2AX (γH2AX) nuclear foci. […] Consequently, the instant study probed for activation of FANCD2 and γH2AX by immunofluorescence imaging in cells treated with 4 or 9. Using conditions that closely mimic the bacterial coinfection experiments, the instant study treated HeLa cells with colibactin 742 (4) (1-100 μM), the linear precursor 9 (1-100 μM), or MMC (150 nM, higher concentrations of MMC reduced cell viability) for 4 h. The cells were then washed and cultured for a further 20 h. […] Thus, the synthetic compounds 4 and 9 induce a similar activation of the eukaryotic DNA damage response as clb^+ E. coli.
(§6) Cells were seeded at a density of 3500 cells per well to achieve total well volumes of 20 μL in 384-well plates (black with an optically clear bottom, Greiner Bio One 781091) using a Thermo Combidrop liquid dispenser. Cells were grown for 24 h, followed by the addition of test compounds using an Echo acoustic liquid handler (Labcyte). For each tested drug concentration, a 20 nL aliquot of the 1000× stock was added to 20 μL of cells to provide a final DMSO concentration of 0.1%. The compounds were incubated for 4 h at concentrations ranging from 1.2 μM to 100 μM in growth medium, at 37° C., 5% CO2. Each plate contained negative vehicle control wells (0.1% DMSO) and positive control wells (0.15 μM Mitomycin C, MMC). After 4 h incubation, the cells were washed once with Dulbecco's Phosphate-buffered solution (DPBS, Life Technologies), then fresh growth medium was added. The cells were incubated for 20 h, fixed, and subjected to immunofluorescence imaging.
(§7) Cells were fixed with 4% paraformaldehyde (PFA) (Electron Microscopy Sciences) in the presence of 0.02% Triton X-100 at room temperature (RT) for 20 min and then incubated in permeabilization/blocking solution [10% FBS and 0.5% Triton X-100 in phosphate-buffered saline (PBS)] at RT for 1 h. Primary antibodies were diluted 1:500 in permeabilization/blocking solution and used to stain cells at 4° C. overnight. […] Cells were imaged using the InCell 2200 Imaging System (GE Corp.) and analyzed using InCell Analyzer software (GE Corp.) to quantify the number of γH2AX and FANCD2 foci. Cells were counted as positive for focus formation when 5 foci/nucleus were detected.

[3] = test system: γH2AX; assay: Immunofluorescence assay of γH2AX foci in HeLa cells; details: 4 h treatment, 20 h further culture; for number of positive cells for γH2AX foci: 11 μM, positive when >5 foci; for γH2AX foci formation: 1-100 μM
Description: as §4, §5, §6, §7

[4] = test system: HeLa cells; assay: Cell viability assay (CellTiter-GLO) in HeLa cells; details: 72 h, 24 nM to 100 μM
Description: as §1, §2, §3

SMILES | IC50 [1] [µM] | number of positive cells for FANCD2 foci ([2]; 11 μM, positive when >5 foci) | cell death and decrease in positive cells at higher concentrations ([2]; higher concentrations (>33 μM)) | number of positive cells for γH2AX foci [3] | cytotoxicity [4] | FANCD2 foci formation [2] | γH2AX foci formation [3] | number of positive cells for FANCD2 foci (with respect to DMSO) ([2]; 33 μM) | number of positive cells for γH2AX foci (with respect to DMSO) ([3]; 33 μM)
C[C@H]1CCC(CC(=O)NC2(C(=O)CC(=O)NCC(=O)c3csc(CCc4csc(CNC(=O)CC(=O)C5(NC(=O)CC6=N[C@@H](C)CC6)CC5)n4)n3)CC2)=N1 [compound 9] | 7.2 ± 1.7 | four-fold increase | induced cell death | four-fold increase |  |  |  |  | 
C[C@H]1CCC(C2=C(CC(=O)NCC(=O)c3csc(CCc4csc(CNC(=O)CC5=C(C6=N[C@@H](C)CC6)C(=O)NC5(C)C)n4)n3)C(C)(C)NC2=O)=N1 [compound 22] |  |  |  |  | showed no toxicity | did not induce | did not induce |  | 
CCOC(=O)c1csc(CNC(=O)CC2=C(C3=N[C@@H](C)CC3)C(=O)NC23CC3)n1 [compound 23, reference compound] | 8.4 ± 2.4 |  |  | induced significant γH2AX foci formation |  |  |  | three-fold increase | three-fold increase
CCOC(=O)c1nc(C2(O)CNC(=O)C2C2=C(C3=N[C@@H](C)CC3)C(=O)NC23CC3)cs1 (some centres unmarked) [compound 24] |  |  |  |  | showed no toxicity | did not induce | did not induce |  | 
